The source of these data is ChEMBL document CHEMBL1201862, “PubChem BioAssay data set” (2004).

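The compound was tested at five concentrations on cells cultured in 96-well plates, with a 48-hour exposure period. At the GI50, growth is halved.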 Activity calls are given as the source filed them. Cut-off read from the data, not from the text of the source: active = GI50 up to about 1.1 µM and inactive = higher. A value given as a limit tells only on which side of the number the result lay.

Test systems include HCT-116; UO-31; K562; MCF7; HOP-92; MOLT-4; LOX IMVI; U-251; HCC 2998; RXF 393; A498; ACHN; NCI/ADR-RES; SF-539; OVCAR-3; KM12; 786-0; SN12C; CCRF-CEM; M14.
Experiment in all cases: inhibition of tumour cell growth, NCI panel, 48 h

With `Cc1cc(=O)n2nc(SCc3ccccc3)sc2n1`, the GI50 with HCT-116 is > 100 µM (inactive); with UO-31, 24.3 µM (inactive); in the test with K562 it was 18.2 µM (inactive); with MCF7, > 100 µM (inactive); in the test on HOP-92 it was 94.8 µM (inactive); in the test with MOLT-4, 46.5 µM (inactive). Moreover, the GI50 was 77.4 µM (inactive) with LOX IMVI; > 100 µM (inactive) in the test with U-251; > 100 µM (inactive) in the test on HCC 2998; 60.3 µM (inactive) with RXF 393; > 100 µM (inactive) in the test on A498; 22.8 µM (inactive) with ACHN. Moreover, the GI50 with NCI/ADR-RES, with SF-539, with OVCAR-3, in the test with KM12, in the test on 786-0 and with SN12C was > 100 µM (inactive) each time. The GI50 with CCRF-CEM and with M14 was > 100 µM (inactive) each time.

As to `CCSc1s/c(=N/c2ccc(/N=c3\sc(C)c(SC)s3)cc2)sc1-c1ccc(C)cc1`, the GI50 in the test with HCT-116, with UO-31, in the test on K562, in the test with MCF7, with HOP-92 and in the test with MOLT-4 was > 100 µM (inactive) each time. For the same molecule, the GI50 in the test on LOX IMVI, with U-251, with HCC 2998, in the test with RXF 393, with A498 and in the test with ACHN was > 100 µM (inactive) in each case. The GI50 with NCI/ADR-RES, in the test with SF-539, in the test on OVCAR-3, in the test with KM12, in the test with 786-0 and in the test with SN12C was > 100 µM (inactive) in each case. Moreover, the GI50 in the test with CCRF-CEM and in the test on M14 was > 100 µM (inactive) in each case.

For the molecule `CC1=NN(c2cccc(Cl)c2)C2(SCC(=O)N2c2nc3ccccc3s2)/C1=C\c1ccc(Cl)cc1` (stereo not given), the GI50 in the test on HCT-116 is 16.3 µM (inactive); in the test with UO-31, 15.1 µM (inactive); in the test with K562 it was 14.4 µM (inactive); in the test on MCF7, 22.2 µM (inactive); with HOP-92, 13.4 µM (inactive); in the test on MOLT-4 it was 4.34 µM (inactive). In addition, the GI50 in the test on LOX IMVI is 20.8 µM (inactive); with U-251, 13.8 µM (inactive); in the test on HCC 2998, 14.5 µM (inactive); in the test with RXF 393, 20.4 µM (inactive); with A498 it was 17.3 µM (inactive); with ACHN, 19.2 µM (inactive). Further, the GI50 in the test on NCI/ADR-RES was 38.8 µM (inactive); with SF-539, 26.2 µM (inactive); in the test on OVCAR-3, 16.8 µM (inactive); in the test on KM12 it was 15.4 µM (inactive); in the test on 786-0 it was 21.6 µM (inactive); in the test with CCRF-CEM, 0.272 µM (active). Besides, the GI50 with M14 was 19.8 µM (inactive).

For `O=CN1CCN(C(=O)c2cc(Cl)cc(Cl)c2)C1=S`, the GI50 is 18.6 µM (inactive) in the test on HCT-116; 14.8 µM (inactive) with K562; 3.47 µM (inactive) in the test with MCF7; 17.9 µM (inactive) with HOP-92; 15 µM (inactive) in the test on MOLT-4; 7.13 µM (inactive) with LOX IMVI. The GI50 was 17 µM (inactive) in the test with U-251; 17.6 µM (inactive) with HCC 2998; 16 µM (inactive) in the test on RXF 393; 15.3 µM (inactive) with A498; 16.9 µM (inactive) with ACHN; 28.9 µM (inactive) in the test with NCI/ADR-RES. In addition, the GI50 in the test on SF-539 was 20.2 µM (inactive); with OVCAR-3, 14.8 µM (inactive); in the test on KM12, 14.4 µM (inactive); in the test on 786-0 it was 4.71 µM (inactive); in the test on SN12C, 15.6 µM (inactive); in the test with CCRF-CEM, 5.38 µM (inactive). For the same molecule, the GI50 in the test on M14 was 15.6 µM (inactive).

As for `CCOC(=O)c1cc(C#N)[nH]c1-c1ccsc1`, the GI50 was 38.4 µM (inactive) with HCT-116; 0.114 µM (active) with UO-31; 25.6 µM (inactive) in the test with K562; 14.3 µM (inactive) with MCF7; 38.6 µM (inactive) with HOP-92; 15.3 µM (inactive) in the test on MOLT-4. In addition, the GI50 with LOX IMVI is 36.2 µM (inactive); in the test on U-251, 25.8 µM (inactive); with HCC 2998, 29.8 µM (inactive); in the test with RXF 393, 17.3 µM (inactive); with A498, 42.7 µM (inactive); in the test with ACHN, 39.5 µM (inactive). In addition, the GI50 is 32.4 µM (inactive) with NCI/ADR-RES; 28.6 µM (inactive) with SF-539; 31 µM (inactive) with OVCAR-3; 25.1 µM (inactive) in the test on KM12; 44 µM (inactive) in the test with 786-0; 54.7 µM (inactive) with SN12C. Further, the GI50 in the test on CCRF-CEM was 21.5 µM (inactive); in the test with M14, 41.7 µM (inactive).

In the case of `CN(C)C1(N(C)C)Oc2c(c(=O)n(C)c(=O)n2C)C(c2ccccc2Br)C1(F)F` (stereo not given), the GI50 in the test on HCT-116, in the test on UO-31, in the test on K562, in the test on MCF7, in the test on HOP-92 and in the test on MOLT-4 was > 100 µM (inactive) throughout. The GI50 with LOX IMVI, in the test on U-251, in the test on HCC 2998, with RXF 393, with A498 and with ACHN was > 100 µM (inactive) in each case. The GI50 in the test with NCI/ADR-RES, in the test on SF-539, with OVCAR-3, in the test with KM12, with 786-0 and in the test with CCRF-CEM was > 100 µM (inactive) in each case. The GI50 with M14 is > 100 µM (inactive).

For the molecule `CC(=O)O[C@H]1C(=O)[C@@]2(C)[C@H]([C@H](OC(=O)c3ccccc3)[C@]3(O)C[C@H](OC(=O)[C@H](O)[C@@H](NC(=O)c4ccccc4)c4cccc(N(C)C)c4)C(C)=C1C3(C)C)[C@]1(OC(C)=O)CO[C@@H]1C[C@@H]2O`, the GI50 is 0.0174 µM (active) in the test on HCT-116; 1.96 µM (inactive) with UO-31; 0.0324 µM (active) in the test on K562; 0.0164 µM (active) in the test with MCF7; 0.555 µM (active) with HOP-92; 0.013 µM (active) with MOLT-4. In addition, the GI50 was 0.036 µM (active) in the test with LOX IMVI; 0.0608 µM (active) in the test on U-251; 0.0315 µM (active) in the test on HCC 2998; 0.221 µM (active) in the test with RXF 393; 0.579 µM (active) in the test on A498; 0.7 µM (active) in the test with ACHN. The GI50 with NCI/ADR-RES was > 28.2 µM (inactive); in the test with SF-539, 0.0668 µM (active); in the test with OVCAR-3, 0.0308 µM (active); with KM12, 0.0198 µM (active); in the test on 786-0 it was 0.389 µM (active); with SN12C it was 0.041 µM (active). In addition, the GI50 was 0.0215 µM (active) in the test with CCRF-CEM and 0.098 µM (active) in the test with M14.

Regarding `CC1(C)OCC(C2OC(=O)C(OCc3ccccc3)=C2OCc2ccccc2)O1` (stereo not given), the GI50 was 31.3 µM (inactive) with HCT-116; 37.1 µM (inactive) in the test with UO-31; 27.4 µM (inactive) in the test on K562; 50.5 µM (inactive) in the test on MCF7; 23 µM (inactive) in the test on HOP-92; 23 µM (inactive) in the test with MOLT-4. The GI50 was 31.2 µM (inactive) with LOX IMVI; 39.2 µM (inactive) with U-251; 36.8 µM (inactive) in the test with HCC 2998; 49.1 µM (inactive) in the test with RXF 393; 22.1 µM (inactive) in the test on A498; 31.5 µM (inactive) in the test on ACHN. For the same molecule, the GI50 in the test on NCI/ADR-RES was 35.2 µM (inactive); in the test on SF-539, 72.6 µM (inactive); in the test on OVCAR-3, 49.2 µM (inactive); with KM12, 32 µM (inactive); in the test with 786-0, 45 µM (inactive); with SN12C it was 39.4 µM (inactive). Moreover, the GI50 is 37.8 µM (inactive) with CCRF-CEM and 45.5 µM (inactive) with M14.

With `Cn1c2c(c3ccccc31)CCN1C(=O)CCC21` (stereo not given), the GI50 in the test with UO-31, with K562, with MCF7, with HOP-92, in the test with MOLT-4 and in the test with LOX IMVI was > 10 µM (inactive) each time. For the same molecule, the GI50 in the test on U-251, in the test on HCC 2998, in the test on RXF 393, with A498, with ACHN and in the test with NCI/ADR-RES was > 10 µM (inactive) throughout. Also, the GI50 in the test with SF-539, with OVCAR-3, in the test with KM12, with 786-0, with SN12C and in the test on CCRF-CEM was > 10 µM (inactive) throughout. Also, the GI50 in the test with M14 was > 10 µM (inactive).

As to `COc1ccc(OC)c(-c2cc(=O)c3c(OC)c(OC)c(OC)c(OC)c3o2)c1`, the GI50 with HCT-116 was 27.6 µM (inactive); in the test on UO-31, 15.4 µM (inactive); with K562 it was 22.2 µM (inactive); in the test with MCF7, 14.5 µM (inactive); with HOP-92, 11.7 µM (inactive); with MOLT-4 it was 9.44 µM (inactive). The GI50 with LOX IMVI is 25.6 µM (inactive); in the test on U-251, 28.4 µM (inactive); in the test on HCC 2998, 28.6 µM (inactive); in the test on RXF 393, 22 µM (inactive); in the test on A498, 36.1 µM (inactive); in the test with ACHN, 20.7 µM (inactive). Besides, the GI50 in the test on NCI/ADR-RES is 22.8 µM (inactive); with SF-539 it was 41.1 µM (inactive); in the test on OVCAR-3, 23 µM (inactive); with 786-0 it was 27.4 µM (inactive); in the test on SN12C, 27.9 µM (inactive); in the test with CCRF-CEM it was 13.4 µM (inactive). The GI50 in the test on M14 is 36.1 µM (inactive).
